{"source": "patent US20040185500A1", "about": "“Use of disease-associated gene” (priority 2001, published 2004)", "target": "T1, human CLCA4-expressing CHO cells (Homo sapiens, UniProt Q14CN2)", "T1 construct": "expressed in transfected cells", "T1 sequence (Q14CN2 22-919)": "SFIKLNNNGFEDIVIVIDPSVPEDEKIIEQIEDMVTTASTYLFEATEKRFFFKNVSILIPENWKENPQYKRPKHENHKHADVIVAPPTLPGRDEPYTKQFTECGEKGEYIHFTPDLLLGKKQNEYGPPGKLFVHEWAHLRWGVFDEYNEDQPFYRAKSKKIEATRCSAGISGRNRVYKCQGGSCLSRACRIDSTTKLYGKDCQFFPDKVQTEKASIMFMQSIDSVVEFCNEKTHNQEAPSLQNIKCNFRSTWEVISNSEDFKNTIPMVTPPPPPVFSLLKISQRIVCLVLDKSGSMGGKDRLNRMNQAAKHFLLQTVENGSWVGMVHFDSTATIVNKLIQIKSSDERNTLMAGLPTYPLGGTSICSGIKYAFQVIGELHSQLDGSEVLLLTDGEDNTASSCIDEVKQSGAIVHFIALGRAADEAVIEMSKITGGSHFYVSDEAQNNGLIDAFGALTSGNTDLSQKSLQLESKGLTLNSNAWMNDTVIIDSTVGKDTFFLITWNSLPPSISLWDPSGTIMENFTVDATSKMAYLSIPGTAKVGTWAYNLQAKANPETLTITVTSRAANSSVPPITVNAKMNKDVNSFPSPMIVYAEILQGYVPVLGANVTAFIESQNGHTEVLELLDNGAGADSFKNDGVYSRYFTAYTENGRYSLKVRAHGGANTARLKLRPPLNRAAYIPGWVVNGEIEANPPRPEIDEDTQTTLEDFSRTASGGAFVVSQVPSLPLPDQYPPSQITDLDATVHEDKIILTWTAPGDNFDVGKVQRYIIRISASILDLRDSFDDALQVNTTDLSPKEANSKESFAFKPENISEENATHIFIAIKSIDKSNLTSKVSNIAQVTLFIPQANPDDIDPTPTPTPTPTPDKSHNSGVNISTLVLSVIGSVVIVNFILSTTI", "experiment": "Ca2+ dependent Cl- channel activity, FLIPR Membrane Potential Assay, ionomycin stimulation", "format": "cell-based", "settings": "2 μM ionomycin, compound added, then cells left for 10 min at room temperature, FIG. 3", "protocol": "The ClCA4 expression plasmid pcDNA-hCLCA4 described in (2) above was introduced into CHO cells using FuGENE 6 (Roche Diagnostics) according to the manual accompanying it. The cells were subjected to selective culture in 1 mg/ml neomycin (G418) (Gibco BRL)-added MEM-α medium (Gibco BRL) for 10 days, and cells growing in this medium were obtained as CLCA4 expressing CHO cells. These CLCA4-expressing CHO cells and parent strain CHO cells were plated in 96-well black clear bottom plates (Corning) at 4×10^4 cells/well and cultured overnight. Cl^− channel activity was measured using FLIPR Membrane Potential Assay Kit (Molecular Device). A potential sensitive dye (Component A) diluted with 20 mM HEPES-containing HBSS buffer (Component B) was added to the plates at […] and reacted at 37° C. for 30 min. Then, the plates were set in FLIPR (Molecular Device) and, after addition of ionomycin (Wako Purechemical industries) at a final concentration of 2 μM, changes in fluorescence were observed as Cl^− channel activity. In both parent strain CHO cells and human CLCA4-expressing CHO cells, increase in fluorescence intensity was hardly recognized in the absence of stimulation. When stimulated with 2 μM ionomycin, increase in fluorescence intensity was observed only in human CLCA4-expressing CHO cells (FIG. 2). […]", "data": [{"smiles": "O=C(O)c1cccnc1Nc1cccc(C(F)(F)F)c1", "note": "[niflumic acid]", "values": [{"measurement": "increase in fluorescence intensity caused by stimulation with ionomycin (Cl- channel activity)", "value": "inhibited"}]}]}
